According to patent US11254686B1 (Corvus Pharmaceuticals, Inc., priority 2017, dated 2022):

Legend:
Assay type in all cases: biochemical
adenosine A2B receptor = adenosine A2B receptor (Homo sapiens (Human), UniProt P29275); experiment: Adenosine receptor activity assay (Table 1), A2B activity; settings: for Ratio: A2A activity to the A2B activity, A2A/A2B; for IC50: read-out: Ave A2B cAMP IC50
adenosine A2A receptor = adenosine A2A receptor (Homo sapiens (Human), UniProt P29274); experiment: Adenosine receptor activity assay (Table 1), A2A activity; settings: read-out: Ave A2A cAMP IC50
adenosine A2A receptor, sequence (P29274 whole entry): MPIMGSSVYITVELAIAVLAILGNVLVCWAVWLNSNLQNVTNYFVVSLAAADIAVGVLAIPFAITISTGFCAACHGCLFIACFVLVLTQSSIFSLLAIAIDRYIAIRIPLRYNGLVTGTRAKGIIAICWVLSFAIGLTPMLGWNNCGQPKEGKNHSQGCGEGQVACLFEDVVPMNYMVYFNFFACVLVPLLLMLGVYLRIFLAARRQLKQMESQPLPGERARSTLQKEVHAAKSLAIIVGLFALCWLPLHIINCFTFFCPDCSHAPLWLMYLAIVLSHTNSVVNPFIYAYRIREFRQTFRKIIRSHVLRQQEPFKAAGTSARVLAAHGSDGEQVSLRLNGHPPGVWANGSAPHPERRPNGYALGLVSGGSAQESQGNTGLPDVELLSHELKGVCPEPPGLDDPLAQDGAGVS

adenosine A1 receptor = adenosine A1 receptor (Homo sapiens (Human), UniProt P30542); experiment: Adenosine receptor activity assay (Table 1), A1 cAMP
adenosine A1 receptor, sequence (P30542 whole entry): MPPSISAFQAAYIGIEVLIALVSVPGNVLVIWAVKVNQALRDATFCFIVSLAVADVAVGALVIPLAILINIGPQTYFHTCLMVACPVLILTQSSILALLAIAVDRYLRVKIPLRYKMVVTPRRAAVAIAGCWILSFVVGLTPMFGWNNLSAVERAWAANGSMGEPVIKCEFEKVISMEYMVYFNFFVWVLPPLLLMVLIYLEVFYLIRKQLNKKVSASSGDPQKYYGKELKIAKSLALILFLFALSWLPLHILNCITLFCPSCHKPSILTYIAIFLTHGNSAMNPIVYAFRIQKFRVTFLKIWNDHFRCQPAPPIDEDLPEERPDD
Description: (§1) Table 1. Compounds (e.g., Adenosine Receptor modulators) and activity assay results. The legend is as follows: A=<10 nM; B=10-50 nM; C=50-100 nM; D=100-500; and E=>500 nM. The ratio corresponds to the A2A activity to the A2B activity; or A2A/A2B.

adenosine A3 receptor = adenosine A3 receptor (Homo sapiens (Human), UniProt P0DMS8); experiment: Adenosine receptor activity assay (Table 1), A3 cAMP
adenosine A3 receptor, sequence (P0DMS8 whole entry): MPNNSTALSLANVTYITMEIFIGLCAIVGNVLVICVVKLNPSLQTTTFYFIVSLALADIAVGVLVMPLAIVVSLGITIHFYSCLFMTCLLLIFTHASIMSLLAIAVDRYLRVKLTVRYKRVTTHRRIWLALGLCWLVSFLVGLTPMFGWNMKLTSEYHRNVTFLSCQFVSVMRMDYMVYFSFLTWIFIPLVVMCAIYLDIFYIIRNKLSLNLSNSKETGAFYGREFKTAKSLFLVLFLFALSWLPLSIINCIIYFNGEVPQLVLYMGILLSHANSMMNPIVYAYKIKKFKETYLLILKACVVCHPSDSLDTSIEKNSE
Description: as §1

adenosine A2B receptor, sequence (P29275 whole entry): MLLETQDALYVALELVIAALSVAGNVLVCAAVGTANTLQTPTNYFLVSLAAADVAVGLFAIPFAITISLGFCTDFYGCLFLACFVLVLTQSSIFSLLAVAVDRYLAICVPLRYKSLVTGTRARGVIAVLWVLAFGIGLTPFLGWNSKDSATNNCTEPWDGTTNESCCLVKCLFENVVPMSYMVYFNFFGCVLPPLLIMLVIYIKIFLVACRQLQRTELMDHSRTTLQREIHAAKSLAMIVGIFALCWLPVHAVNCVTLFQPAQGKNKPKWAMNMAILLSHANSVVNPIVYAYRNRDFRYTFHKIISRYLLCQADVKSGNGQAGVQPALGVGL

SMILES | Ratio (adenosine A2B receptor) | IC50 (adenosine A2B receptor) [nM] | IC50 (adenosine A2A receptor) [nM] | IC50 (adenosine A1 receptor) [nM] | IC50 (adenosine A3 receptor) [nM]
CNC(=O)N1CCN(C(=O)c2nc(N[C@@H](C)c3cncc(F)c3)nc3ccsc23)C1 [Example Z585, (S)-3-(2-((1-(5-Fluoropyridin-3-yl)ethyl)amino)thieno[3,2-d]pyrimidine-4-carbonyl)-N-methylimidazolidine-1-carboxamide] | 21.44 | 10 to 50 | 100 to 500 | > 500 | > 500
Cc1csc2c(C(=O)N3CCCC3)nc(N[C@@H](C)c3cncc(F)c3)nc12 [Example Z414, (S)-(2-((1-(5-Fluoropyridin-3-yl)ethyl)amino)-7-methylthieno[3,2-d]pyrimidin-4-yl)(pyrrolidin-1-yl)methanone] | 19.11 | < 10 | 10 to 50 | 50 to 100 | 50 to 100
CC(C)C(=O)NC1CN(C(=O)c2nc(N[C@@H](C)c3cncc(F)c3)nc3ccsc23)C1 [Example Z558, (S)—N-(1-(2-((1-(5-Fluoropyridin-3-yl)ethyl)amino)thieno[3,2-d]pyrimidine-4-carbonyl)azetidin-3-yl)isobutyramide] | 3.43 | < 10 | 10 to 50 | > 500 | > 500
Cc1cc2nc(N[C@@H](C)c3cncc(F)c3)nc(C(=O)N3CC(CNC(=O)CC(C)(C)C)C3)c2s1 [Example Z586, (S)—N-((1-(2-((1-(5-Fluoropyridin-3-yl)ethyl)amino)-6-methylthieno[3,2-d]pyrimidine-4-carbonyl)azetidin-3-yl)methyl)-3,3-dimethylbutanamide] | 2.27 | 10 to 50 | 50 to 100 | > 500 | > 500
Cc1cc2nc(N[C@@H](C)c3ccccn3)nc(C(=O)NCc3cccnc3)c2s1 [Example Z462, (S)-6-Methyl-2-((1-(pyridin-2-yl)ethyl)amino)-N-(pyridin-3-ylmethyl)thieno[3,2-d]pyrimidine-4-carboxamide] | 2.70 | 10 to 50 | 50 to 100 | > 500 | 50 to 100
Cc1cc2nc(N[C@@H](C)c3cncc(F)c3)nc(C(=O)N3CC[C@@H](CN)C3)c2s1 [Example Z597, ((S)-3-(Aminomethyl)pyrrolidin-1-yl)(2-(((S)-1-(5-fluoropyridin-3-yl)ethyl)amino)-6-methylthieno[3,2-d]pyrimidin-4-yl)methanone] | 99.33 | 10 to 50 | > 500 | < 10 | < 10
C[C@H](Nc1nc(C(=O)NCCc2ccc(O)cc2)c2sccc2n1)c1ccnc(F)c1 [Example Z405, (S)-2-((1-(2-Fluoropyridin-4-yl)ethyl)amino)-N-(4-hydroxyphenethyl)thieno[3,2-d]pyrimidine-4-carboxamide] | 28.50 | < 10 | 100 to 500 | > 500 | > 500
CCNC(=O)C1CCN(C(=O)c2nc(N[C@@H](C)c3cncc(F)c3)nc3ccsc23)C1 (stereo partly drawn) [Example Z520, N-Ethyl-1-(2-(((S)-1-(5-fluoropyridin-3-yl)ethyl)amino)thieno[3,2-d]pyrimidine-4-carbonyl)pyrrolidine-3-carboxamide] | 27.57 | < 10 | 100 to 500 | > 500 | > 500
CC(=O)N[C@@H]1CCN(C(=O)c2nc(N[C@@H](C)c3cncc(F)c3)nc3cc(C)sc23)C1 [Example Z532, N—((R)-1-(2-(((S)-1-(5-Fluoropyridin-3-yl)ethyl)amino)-6-methylthieno[3,2-d]pyrimidine-4-carbonyl)pyrrolidin-3-yl)acetamide] | 149.69 | 10 to 50 | > 500 | > 500 | > 500
Cc1cc2nc(N[C@@H](C)c3cncc(F)c3)nc(C(=O)N3CC[C@H]3C)c2s1 [Example Z595, (2-(((S)-1-(5-Fluoropyridin-3-yl)ethyl)amino)-6-methylthieno[3,2-d]pyrimidin-4-yl)((R)-2-methylazetidin-1-yl)methanone] | 9.45 | < 10 | 10 to 50 | < 10 | < 10
Cc1cc2nc(N[C@@H](C)c3cncc(F)c3)nc(C(=O)N3CC(NC(=O)C4CCOC4)C3)c2s1 (stereo partly drawn) [Example Z523, N-(1-(2-(((S)-1-(5-Fluoropyridin-3-yl)ethyl)amino)-6-methylthieno[3,2-d]pyrimidine-4-carbonyl)azetidin-3-yl)tetrahydrofuran-3-carboxamide] | 1.40 | < 10 | 10 to 50 | > 500 | 100 to 500
C[C@H](Nc1nc(C(=O)N2CCC(C(=O)NOC(C)(C)C)C2)c2sccc2n1)c1cncc(F)c1 (stereo partly drawn) [Example Z549, N-(tert-Butoxy)-1-(2-(((S)-1-(5-fluoropyridin-3-yl)ethyl)amino)thieno[3,2-d]pyrimidine-4-carbonyl)pyrrolidine-3-carboxamide] | 0.63 | 10 to 50 | < 10 | > 500 | > 500
CC(=O)N(C)C1CN(C(=O)c2nc(N[C@@H](C)c3cncc(F)c3)nc3cc(C)sc23)C1 [Example Z509, (S)—N-(1-(2-((1-(5-Fluoropyridin-3-yl)ethyl)amino)-6-methylthieno[3,2-d]pyrimidine-4-carbonyl)azetidin-3-yl)-N-methylacetamide] | 80.91 | < 10 | > 500 | > 500 | > 500

More lines, now with the values ahead:

Ratio (adenosine A2B receptor) | IC50 (adenosine A2B receptor) [nM] | IC50 (adenosine A2A receptor) [nM] | IC50 (adenosine A1 receptor) [nM] | IC50 (adenosine A3 receptor) [nM] | SMILES
5.27 | 10 to 50 | 100 to 500 | > 500 | > 500 | Cc1cc2nc(N[C@@H](C)c3ccccn3)nc(C(=O)N3CC(CNC(=O)OC(C)(C)C)C3)c2s1 [Example Z476, tert-Butyl (S)-((1-(6-methyl-2-((1-(pyridin-2-yl)ethyl)amino)thieno[3,2-d]pyrimidine-4-carbonyl)azetidin-3-yl)methyl)carbamate]
4.26 | 10 to 50 | 50 to 100 | > 500 | > 500 | CC(C)(C)C(=O)N[C@H]1CCN(C(=O)c2nc(NCc3cncc(F)c3)nc3ccsc23)C1 [Example Z526, (S)—N-(1-(2-(((5-Fluoropyridin-3-yl)methyl)amino)thieno[3,2-d]pyrimidine-4-carbonyl)pyrrolidin-3-yl)pivalamide]
69.41 | < 10 | 100 to 500 | > 500 | > 500 | C[C@H](Nc1nc(C(=O)NCCc2ccc(O)cc2)c2sccc2n1)c1ccccn1 [Example Z410, (S)—N-(4-Hydroxyphenethyl)-2-((1-(pyridin-2-yl)ethyl)amino)thieno[3,2-d]pyrimidine-4-carboxamide]
44.92 | < 10 | 100 to 500 | > 500 | > 500 | CC(=O)NCC1CN(C(=O)c2nc(N[C@@H](C)c3cncc(F)c3)nc3ccsc23)C1 [Example Z528, (S)—N-((1-(2-((1-(5-Fluoropyridin-3-yl)ethyl)amino)thieno[3,2-d]pyrimidine-4-carbonyl)azetidin-3-yl)methyl)acetamide]
52.64 | < 10 | 100 to 500 | > 500 | > 500 | Cc1csc2c(C(=O)N3CC[C@H](O)C3)nc(N[C@@H](C)c3cncc(F)c3)nc12 [Example Z416, (2-(((S)-1-(5-Fluoropyridin-3-yl)ethyl)amino)-7-methylthieno[3,2-d]pyrimidin-4-yl)((S)-3-hydroxypyrrolidin-1-yl)methanone]
10.96 | 10 to 50 | 100 to 500 | > 500 | > 500 | Cc1cc2nc(N[C@@H](C)c3cncc(F)c3)nc(C(=O)N3CC(CNC(=O)C(C)(C)C)C3)c2s1 [Example Z490, (S)—N-((1-(2-((1-(5-Fluoropyridin-3-yl)ethyl)amino)-6-methylthieno[3,2-d]pyrimidine-4-carbonyl)azetidin-3-yl)methyl)pivalamide]
8.25 | 10 to 50 | 100 to 500 | > 500 | 10 to 50 | Cc1cc2nc(N[C@@H](C)c3ccccn3)nc(C(=O)NCc3nccs3)c2s1 [Example Z492, (S)-6-Methyl-2-((1-(pyridin-2-yl)ethyl)amino)-N-(thiazol-2-ylmethyl)thieno[3,2-d]pyrimidine-4-carboxamide]
5.66 | 10 to 50 | 50 to 100 | > 500 | > 500 | CCOC(=O)N(C)C1CN(C(=O)c2nc(N[C@@H](C)c3cncc(F)c3)nc3cc(C)sc23)C1 [Example Z507, Ethyl (S)-(1-(2-((1-(5-fluoropyridin-3-yl)ethyl)amino)-6-methylthieno[3,2-d]pyrimidine-4-carbonyl)azetidin-3-yl)(methyl)carbamate]
167.42 | 10 to 50 | > 500 | > 500 | > 500 | Cc1cc2nc(N[C@@H](C)c3cncc(F)c3)nc(C(=O)N3CC(CN)C3)c2s1 [Example Z478, (S)-(3-(Aminomethyl)azetidin-1-yl)(2-((1-(5-fluoropyridin-3-yl)ethyl)amino)-6-methylthieno[3,2-d]pyrimidin-4-yl)methanone]
19.43 | 10 to 50 | 100 to 500 | > 500 | > 500 | C[C@H](Nc1nc(C(=O)N2CC(CNS(C)(=O)=O)C2)c2sccc2n1)c1cncc(F)c1 [Example Z531, (S)—N-((1-(2-((1-(5-Fluoropyridin-3-yl)ethyl)amino)thieno[3,2-d]pyrimidine-4-carbonyl)azetidin-3-yl)methyl)methanesulfonamide]
